biological target: T1, TYK2-JH2 domain (Homo sapiens, UniProt P29597); assay: Binding activity test for JH2 domain of TYK2 (Tb-antibody/tracer FRET); details: JH2 domain enzyme; 60 min at 25°C, then 4°C overnight; read-out: TYK2 JH2 Binding IC50
T1 construct: JAK1-JH2 domain or TYK2-JH2 domain enzyme in assay buffer
Protocol: Binding Activity test for JH2 domain of JAK1 and TYK2 […] Add 8μL/well in echo source plate, echo will add 75nL/well with 3-fold serial dilution for 11 points in assay plate. 75nL DMSO for high control and low control. […] For low control, add 5μL/well assay buffer. And then spin down at 1000rpm and centrifuge for 30 seconds. After enzyme system prepared, add 5μL of Tb-antibody solution into each well of assay plate. Spin down at 1000 rpm and centrifuge for 30sec. After Tb-antibody added, also add 5μL of tracer into the assay plate. Spin down at 1000rpm and centrifuge for 30sec. Incubate for […] at 25°C firstly and then continue to incubate the plate at 4°C overnight. Read by envision in FRET mode. The Luminescence value was recorded by a multi-label reader Envision (PerkinElmer). […] Table 2. IC50 on JH2 domain activity (nM)

T1 sequence (P29597 589-875 limits assumed): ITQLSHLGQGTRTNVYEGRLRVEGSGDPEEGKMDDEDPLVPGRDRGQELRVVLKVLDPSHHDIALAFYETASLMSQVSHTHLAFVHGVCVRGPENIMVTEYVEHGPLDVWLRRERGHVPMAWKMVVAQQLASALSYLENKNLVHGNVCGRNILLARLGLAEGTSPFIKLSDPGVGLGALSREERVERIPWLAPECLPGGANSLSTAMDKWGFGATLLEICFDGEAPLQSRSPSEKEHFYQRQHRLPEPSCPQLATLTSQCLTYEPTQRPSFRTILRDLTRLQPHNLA

| IC50 [nM] | Compound |
| --- | --- |
| > 298 | COC(=O)c1c(Nc2nn(C)c3ccc(C(OC)C(F)(F)F)c(OC)c23)cc(NC(=O)C2CC2)nc1F (single isomer, unassigned) [Example 98A, Methyl (R*)-6-(cyclopropanecarboxamido)-2-fluoro-4-((4-methoxy-1-methyl-5-(2,2,2-trifluoro-1-methoxyethyl)-1H-indazol-3-yl)amino)nicotinate] |
| 3.88 | COC(=O)c1c(Nc2nn(C)c3ccc(C(OC)C(F)(F)F)c(OC)c23)cc(NC(=O)C2CC2)nc1F (single isomer, unassigned) [Example 98B, Methyl (S*)-6-(cyclopropanecarboxamido)-2-fluoro-4-((4-methoxy-1-methyl-5-(2,2,2-trifluoro-1-methoxyethyl)-1H-indazol-3-yl)amino)nicotinate] |
| 1.22 | COC(=O)c1cnc(NC(=O)C2CC2)cc1Nc1nn(C)c2ccc(C(OC)C(C)(F)F)c(OC)c12 (single isomer, unassigned) [Example 115B, Methyl (R*)-6-(cyclopropanecarboxamido)-4-((5-(2,2-difluoro-1-methoxypropyl)-4-methoxy-1-methyl-1H-indazol-3-yl)amino)nicotinate] |
| 1.41 | [2H]C([2H])([2H])OC(c1ccc2c(c(Nc3cc(NC(=O)C4CC4)ncc3C(=O)OC)nn2CCOC)c1OC)C(F)(F)F (single isomer, unassigned) [Example 157B, Methyl (R*)-6-(cyclopropanecarboxamido)-4-((4-methoxy-1-(2-methoxyethyl)-5-(2,2,2-trifluoro-1-methoxyethyl)-1H-indazol-3-yl)amino)nicotinate] |
| 0.627 | [2H]C([2H])([2H])O[C@H](c1ccc2c(c(Nc3cc(NC(=O)C4CC4)ncc3C(=O)OC)nn2C([2H])([2H])[2H])c1OC)C(F)(F)F [Example 53A, Methyl (R)-6-(cyclopropanecarboxamido)-4-((4-methoxy-1-(methyl-d3)-5-(2,2,2-trifluoro-1-(methoxy-d3)ethyl)-1H-indazol-3-yl)amino)nicotinate] |
| 2.37 | [2H]C([2H])([2H])NC(=O)c1cnc(NC(=O)C2CC2)cc1Nc1cnn2ccc(C)c(NC)c12 [Example 97, 6-(Cyclopropanecarbonylamino)-4-[[5-methyl-4-(methylamino)pyrazolo [1,5-a]pyridin-3-yl]amino]-N-(trideuteriomethyl)pyridine-3-carboxamide] |

| Compound | IC50 [nM] |
| --- | --- |
| CCOC(c1ccc2c(c(Nc3cc(NC(=O)C4CC4)ncc3C(=O)OC)nn2C)c1OC)C(F)(F)F (racemic) [Example 106, Methyl 6-(cyclopropanecarboxamido)-4-((5-(1-ethoxy-2,2,2-trifluoroethyl)-4-methoxy-1-methyl-1H-indazol-3-yl)amino)nicotinate] | 1.31 |
| CCOC(c1ccc2c(c(Nc3cc(NC(=O)C4CC4)ncc3C(=O)OC)nn2C)c1OC)C(F)(F)F (single isomer, unassigned) [Example 106A, Methyl (R*)-6-(cyclopropanecarboxamido)-4-((5-(1-ethoxy-2,2,2-trifluoroethyl)-4-methoxy-1-methyl-1H-indazol-3-yl)amino)nicotinate] | 4.31 |

same assay, conditions: read-out: TYK2 JH2 Binding IC50; JH2 domain enzyme; 60 min at 25°C, then 4°C overnight

| Compound | IC50 [nM] |
| --- | --- |
| COC(=O)c1cnc(NC(=O)[C@@H]2C[C@@H]2F)cc1Nc1nn(C)c2ccc(C(O)C(F)(F)F)c(OC)c12 (single isomer, unassigned) [Example 122B, Methyl 6-((1S,2S)-2-fluorocyclopropane-1-carboxamido)-4-((4-methoxy-1-methyl-5-((R*)-2,2,2-trifluoro-1-hydroxyethyl)-1H-indazol-3-yl)amino) nicotinate] | 0.733 |
| [2H]C([2H])([2H])OC(=O)c1cnc(NC(=O)C2CC2)cc1Nc1ncc2ccn(C([2H])([2H])C([2H])([2H])[2H])c2c1OC([2H])([2H])[2H] [Example 61, Methyl-d3 6-(cyclopropanecarboxamido)-4-((1-(ethyl-d5)-7-(methoxy-d3)-1H-pyrrolo[3,2-c]pyridin-6-yl)amino) nicotinate] | 1.36 |

Reference: EP4813463A2, “TYK2 INHIBITORS AND COMPOSITIONS AND METHODS THEREOF” (Lynk Pharmaceuticals Co. Ltd., priority 2023, dated 2024)
